Laboratory results from the kinase profiling compilation of Christmann-Franck et al. (2016).

Assays:
Test in all cases: radiometric filter-binding kinase assay
[1] = target: HIPK2 (human) (UniProt Q9H2X6)
[2] = test system: SGK1 (human), O00141 [S422D]
[3] = target: CaMK1 (human) (UniProt Q14012)
[4] = target: ERBB4 (human) (UniProt Q15303)
[5] = target: MAPKAPK3 (human) (UniProt Q16644)
[6] = target: DYRK1A (human) (UniProt Q13627)
[7] = target: PRKACA (human) (UniProt P17612)
[8] = target: AURKA (human) (UniProt O14965)
Sequence of AURKA (human) (O14965 whole entry, looked up): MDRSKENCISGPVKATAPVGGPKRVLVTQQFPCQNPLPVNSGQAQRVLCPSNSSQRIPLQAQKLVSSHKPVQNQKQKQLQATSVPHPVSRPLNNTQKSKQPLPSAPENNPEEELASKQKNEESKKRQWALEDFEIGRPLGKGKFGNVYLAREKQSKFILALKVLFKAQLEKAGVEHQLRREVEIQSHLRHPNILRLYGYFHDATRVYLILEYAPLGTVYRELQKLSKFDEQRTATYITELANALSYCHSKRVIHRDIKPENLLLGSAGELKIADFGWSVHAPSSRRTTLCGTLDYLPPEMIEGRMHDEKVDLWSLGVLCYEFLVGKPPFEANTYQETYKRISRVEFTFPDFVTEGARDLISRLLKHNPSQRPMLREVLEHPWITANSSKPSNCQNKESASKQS

[9] = target: DYRK2 (human) (UniProt Q92630)
[10] = target: MKNK1 (human) (UniProt Q9BUB5)
[11] = target: MAP2K6 (human) (UniProt P52564)
[12] = target: MAPK13 (human) (UniProt O15264)
[13] = target: PAK7 (human) (UniProt Q9P286)
Sequence of PAK7 (human) (Q9P286 whole entry, looked up): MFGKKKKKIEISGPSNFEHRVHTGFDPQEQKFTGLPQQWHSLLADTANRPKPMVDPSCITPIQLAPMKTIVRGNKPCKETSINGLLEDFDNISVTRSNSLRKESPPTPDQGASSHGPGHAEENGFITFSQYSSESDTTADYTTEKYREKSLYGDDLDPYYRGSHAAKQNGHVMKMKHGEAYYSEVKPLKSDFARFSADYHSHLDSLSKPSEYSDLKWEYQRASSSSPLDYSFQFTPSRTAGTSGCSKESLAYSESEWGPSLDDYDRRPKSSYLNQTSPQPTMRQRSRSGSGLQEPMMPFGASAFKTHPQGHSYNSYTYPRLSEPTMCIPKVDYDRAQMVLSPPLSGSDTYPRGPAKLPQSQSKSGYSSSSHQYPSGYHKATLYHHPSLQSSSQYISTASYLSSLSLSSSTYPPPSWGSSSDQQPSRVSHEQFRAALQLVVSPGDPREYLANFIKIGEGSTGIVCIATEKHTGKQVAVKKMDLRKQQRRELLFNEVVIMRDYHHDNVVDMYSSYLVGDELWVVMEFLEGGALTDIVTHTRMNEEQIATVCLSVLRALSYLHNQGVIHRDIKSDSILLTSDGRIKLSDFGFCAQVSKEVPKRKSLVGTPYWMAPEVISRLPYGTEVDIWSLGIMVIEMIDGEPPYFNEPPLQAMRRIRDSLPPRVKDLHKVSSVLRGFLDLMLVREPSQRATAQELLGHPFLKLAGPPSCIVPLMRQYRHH

[14] = target: BRSK2 (human) (UniProt Q8IWQ3)
Sequence of BRSK2 (human) (Q8IWQ3 whole entry, looked up): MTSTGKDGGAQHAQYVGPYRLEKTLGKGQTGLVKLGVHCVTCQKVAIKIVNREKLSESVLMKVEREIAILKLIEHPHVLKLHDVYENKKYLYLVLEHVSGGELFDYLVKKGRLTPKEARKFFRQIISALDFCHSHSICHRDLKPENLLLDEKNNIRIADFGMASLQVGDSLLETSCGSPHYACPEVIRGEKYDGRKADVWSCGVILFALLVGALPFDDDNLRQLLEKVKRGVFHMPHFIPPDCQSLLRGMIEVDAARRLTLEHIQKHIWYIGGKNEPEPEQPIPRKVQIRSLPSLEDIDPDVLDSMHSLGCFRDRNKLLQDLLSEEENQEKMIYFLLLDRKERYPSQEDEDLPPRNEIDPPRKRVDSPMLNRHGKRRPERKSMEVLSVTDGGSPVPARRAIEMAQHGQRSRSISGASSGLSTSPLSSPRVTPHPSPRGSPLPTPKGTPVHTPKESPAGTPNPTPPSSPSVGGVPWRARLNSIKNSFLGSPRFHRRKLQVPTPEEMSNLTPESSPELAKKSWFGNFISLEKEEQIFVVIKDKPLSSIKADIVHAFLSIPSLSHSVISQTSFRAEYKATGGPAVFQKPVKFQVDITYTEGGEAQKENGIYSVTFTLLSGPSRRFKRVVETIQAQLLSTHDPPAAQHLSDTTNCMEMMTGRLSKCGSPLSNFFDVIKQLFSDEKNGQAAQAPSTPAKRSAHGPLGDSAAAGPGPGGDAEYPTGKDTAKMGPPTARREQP

[15] = target: MAPK12 (human) (UniProt P53778)
Sequence of MAPK12 (human) (P53778 whole entry, looked up): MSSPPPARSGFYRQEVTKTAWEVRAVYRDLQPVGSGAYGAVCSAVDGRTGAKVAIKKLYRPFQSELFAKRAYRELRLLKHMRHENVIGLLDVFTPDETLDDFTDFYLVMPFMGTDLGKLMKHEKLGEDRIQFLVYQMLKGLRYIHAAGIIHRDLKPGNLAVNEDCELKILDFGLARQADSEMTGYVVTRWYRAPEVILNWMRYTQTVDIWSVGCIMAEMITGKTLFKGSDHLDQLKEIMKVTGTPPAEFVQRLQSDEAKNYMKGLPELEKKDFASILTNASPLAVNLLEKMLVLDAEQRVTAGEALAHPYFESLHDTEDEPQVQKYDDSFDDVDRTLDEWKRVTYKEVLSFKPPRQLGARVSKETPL

[16] = target: MAPK1 (human) (UniProt P28482)
[17] = target: MAPK8 (human) (UniProt P45983)
[18] = target: EPHB2 (human) (UniProt P29323)
[19] = target: IKBKE (human) (UniProt Q14164)
[20] = target: MST4 (human) (UniProt Q9P289)
[21] = target: MAP3K11 (human) (UniProt Q16584)
[22] = target: MAPK3 (human) (UniProt P27361)
[23] = target: PRKCA (human) (UniProt P17252)
[24] = test system: AKT1 (human), P31749 [S473D]
[25] = target: NUAK1 (human) (UniProt O60285)
Sequence of NUAK1 (human) (O60285 whole entry, looked up): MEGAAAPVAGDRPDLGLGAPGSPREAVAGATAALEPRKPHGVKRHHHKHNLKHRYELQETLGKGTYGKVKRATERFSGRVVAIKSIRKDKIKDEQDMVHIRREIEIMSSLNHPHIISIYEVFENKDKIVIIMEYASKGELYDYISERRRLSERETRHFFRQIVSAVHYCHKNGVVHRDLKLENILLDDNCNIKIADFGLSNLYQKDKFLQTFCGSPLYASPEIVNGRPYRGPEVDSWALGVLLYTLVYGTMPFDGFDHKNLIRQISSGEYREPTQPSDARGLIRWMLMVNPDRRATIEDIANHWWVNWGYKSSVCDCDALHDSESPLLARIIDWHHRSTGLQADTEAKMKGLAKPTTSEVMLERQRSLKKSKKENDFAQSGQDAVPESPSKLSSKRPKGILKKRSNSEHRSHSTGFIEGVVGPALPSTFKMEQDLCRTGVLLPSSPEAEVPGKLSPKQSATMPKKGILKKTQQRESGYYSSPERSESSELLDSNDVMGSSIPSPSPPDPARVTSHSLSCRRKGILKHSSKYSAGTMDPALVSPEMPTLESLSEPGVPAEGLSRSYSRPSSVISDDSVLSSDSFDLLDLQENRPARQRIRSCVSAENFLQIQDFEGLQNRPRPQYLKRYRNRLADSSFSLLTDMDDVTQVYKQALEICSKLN

[26] = target: RPS6KA1 KD1 KD2 (human) (UniProt Q15418)
[27] = target: NEK2 (human) (UniProt P51955)
[28] = target: PAK4 (human) (UniProt O96013)
[29] = target: MARK2 (human) (UniProt Q7KZI7)
[30] = target: CHEK2 (human) (UniProt O96017)
Sequence of CHEK2 (human) (O96017 whole entry, looked up): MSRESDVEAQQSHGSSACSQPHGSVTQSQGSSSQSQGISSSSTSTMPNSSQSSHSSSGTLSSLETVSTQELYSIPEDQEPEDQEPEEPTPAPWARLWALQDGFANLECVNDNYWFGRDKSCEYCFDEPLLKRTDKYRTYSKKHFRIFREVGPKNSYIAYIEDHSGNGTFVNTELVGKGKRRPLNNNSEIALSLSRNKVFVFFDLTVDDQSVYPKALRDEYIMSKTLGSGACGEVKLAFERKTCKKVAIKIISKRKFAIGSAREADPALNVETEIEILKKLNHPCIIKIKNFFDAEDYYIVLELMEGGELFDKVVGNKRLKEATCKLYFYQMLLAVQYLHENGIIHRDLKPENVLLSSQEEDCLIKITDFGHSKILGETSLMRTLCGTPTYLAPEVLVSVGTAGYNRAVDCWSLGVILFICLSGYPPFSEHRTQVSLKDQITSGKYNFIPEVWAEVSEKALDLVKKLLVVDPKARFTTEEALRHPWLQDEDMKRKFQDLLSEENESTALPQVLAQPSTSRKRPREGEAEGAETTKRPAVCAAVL

[31] = target: PLK1 (human) (UniProt P53350)
[32] = target: MAPK10 (human) (UniProt P53779)
Sequence of MAPK10 (human) (P53779 whole entry, looked up): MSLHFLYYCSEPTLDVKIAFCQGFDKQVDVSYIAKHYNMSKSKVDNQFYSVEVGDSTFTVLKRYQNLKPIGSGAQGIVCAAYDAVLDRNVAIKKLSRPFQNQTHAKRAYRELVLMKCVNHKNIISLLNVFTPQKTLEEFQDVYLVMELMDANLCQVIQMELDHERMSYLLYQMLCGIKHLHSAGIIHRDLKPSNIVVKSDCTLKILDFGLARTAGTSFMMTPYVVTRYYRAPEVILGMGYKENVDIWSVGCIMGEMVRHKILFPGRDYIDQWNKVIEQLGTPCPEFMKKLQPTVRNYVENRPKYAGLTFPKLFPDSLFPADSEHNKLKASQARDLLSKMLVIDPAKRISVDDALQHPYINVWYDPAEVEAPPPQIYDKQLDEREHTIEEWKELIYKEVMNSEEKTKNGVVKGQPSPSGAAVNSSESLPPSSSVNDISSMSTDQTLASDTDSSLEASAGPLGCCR

[33] = target: SYK (human) (UniProt P43405)
[34] = test system: PRKAA1 or PRKAA2 (rat); settings: accession and sequence are those of the human protein
[35] = target: EPHB3 (human) (UniProt P54753)
Sequence of EPHB3 (human) (P54753 whole entry, looked up): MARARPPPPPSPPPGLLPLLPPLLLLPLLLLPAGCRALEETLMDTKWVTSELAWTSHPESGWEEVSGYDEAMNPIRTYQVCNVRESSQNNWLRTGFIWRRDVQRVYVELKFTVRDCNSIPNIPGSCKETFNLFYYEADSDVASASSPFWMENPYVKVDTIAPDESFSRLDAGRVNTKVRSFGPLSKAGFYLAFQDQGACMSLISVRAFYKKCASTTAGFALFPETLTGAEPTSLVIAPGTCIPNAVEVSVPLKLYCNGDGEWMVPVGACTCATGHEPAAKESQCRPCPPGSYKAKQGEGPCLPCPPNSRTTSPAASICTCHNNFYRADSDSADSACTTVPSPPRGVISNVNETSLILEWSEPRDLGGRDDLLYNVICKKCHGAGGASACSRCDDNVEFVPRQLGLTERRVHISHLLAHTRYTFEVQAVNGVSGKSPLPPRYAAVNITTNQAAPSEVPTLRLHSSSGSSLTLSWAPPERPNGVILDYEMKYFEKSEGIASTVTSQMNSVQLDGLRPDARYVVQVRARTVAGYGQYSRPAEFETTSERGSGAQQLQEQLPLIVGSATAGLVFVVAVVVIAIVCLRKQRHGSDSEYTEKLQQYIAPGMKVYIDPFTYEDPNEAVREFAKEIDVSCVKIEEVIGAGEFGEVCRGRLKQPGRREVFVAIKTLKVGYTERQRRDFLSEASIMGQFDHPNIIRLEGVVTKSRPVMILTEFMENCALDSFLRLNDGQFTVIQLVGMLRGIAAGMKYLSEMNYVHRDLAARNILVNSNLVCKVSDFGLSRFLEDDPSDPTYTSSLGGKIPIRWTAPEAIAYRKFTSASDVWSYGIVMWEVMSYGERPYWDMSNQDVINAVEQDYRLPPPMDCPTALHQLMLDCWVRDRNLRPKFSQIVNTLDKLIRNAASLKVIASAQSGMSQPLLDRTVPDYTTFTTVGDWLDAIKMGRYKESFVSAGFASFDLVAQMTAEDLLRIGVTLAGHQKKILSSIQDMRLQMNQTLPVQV

Work on Cc1ccc(Sc2cnc(Nc3cccc(Br)n3)s2)cc1C(=O)N1CCN(C(=O)CN)CC1 yielded a residual activity ([1]; compound 0.1 µM) of 14%, a residual activity ([1]; compound 1.0 µM) of 13% and a residual activity ([1]; compound 10.0 µM) of 5%. It also gave a residual activity ([2]; compound 0.1 µM) of 89%, a residual activity ([2]; compound 1.0 µM) of 90% and a residual activity ([2]; compound 10.0 µM) of 41%. The residual activity ([3]; compound 0.1 µM) was 62%, the residual activity ([3]; compound 1.0 µM) was 59% and the residual activity ([3]; compound 10.0 µM) was 11%. The residual activity ([4]; compound 0.1 µM) was 69%, the residual activity ([4]; compound 1.0 µM) was 64% and the residual activity ([4]; compound 10.0 µM) was 51%. It also gave a residual activity ([5]; compound 0.1 µM) of 91%, a residual activity ([5]; compound 1.0 µM) of 77% and a residual activity ([5]; compound 10.0 µM) of 85%. For the same compound, the residual activity ([6]; compound 0.1 µM) was 103%, the residual activity ([6]; compound 1.0 µM) was 101% and the residual activity ([6]; compound 10.0 µM) was 61%. The residual activity ([7]; compound 0.1 µM) was 98%, the residual activity ([7]; compound 1.0 µM) was 88% and the residual activity ([7]; compound 10.0 µM) was 54%. The residual activity ([8]; compound 0.1 µM) was 3%, the residual activity ([8]; compound 1.0 µM) was 3% and the residual activity ([8]; compound 10.0 µM) was 0%. It also gave a residual activity ([9]; compound 0.1 µM) of 101%, a residual activity ([9]; compound 1.0 µM) of 87% and a residual activity ([9]; compound 10.0 µM) of 80%. The residual activity ([10]; compound 0.1 µM) was 97%, the residual activity ([10]; compound 1.0 µM) was 103% and the residual activity ([10]; compound 10.0 µM) was 77%. It also gave a residual activity ([11]; compound 0.1 µM) of 94%, a residual activity ([11]; compound 1.0 µM) of 95% and a residual activity ([12]; compound 0.1 µM) of 97%. For the same compound, the residual activity ([12]; compound 1.0 µM) was 24%, the residual activity ([12]; compound 10.0 µM) was 5% and the residual activity ([13]; compound 0.1 µM) was 62%. It also gave a residual activity ([13]; compound 1.0 µM) of 58%, a residual activity ([13]; compound 10.0 µM) of 22% and a residual activity ([14]; compound 0.1 µM) of 88%. It also gave a residual activity ([14]; compound 1.0 µM) of 80%, a residual activity ([14]; compound 10.0 µM) of 40% and a residual activity ([15]; compound 0.1 µM) of 77%. For the same compound, the residual activity ([15]; compound 1.0 µM) was 80%, the residual activity ([15]; compound 10.0 µM) was 45% and the residual activity ([16]; compound 0.1 µM) was 99%. The residual activity ([16]; compound 1.0 µM) was 103%, the residual activity ([16]; compound 10.0 µM) was 85% and the residual activity ([17]; compound 0.1 µM) was 98%. It also gave a residual activity ([17]; compound 1.0 µM) of 99%, a residual activity ([17]; compound 10.0 µM) of 53% and a residual activity ([18]; compound 0.1 µM) of 11%. It also gave a residual activity ([18]; compound 1.0 µM) of 4%, a residual activity ([18]; compound 10.0 µM) of 4% and a residual activity ([19]; compound 0.1 µM) of 91%. It also gave a residual activity ([19]; compound 1.0 µM) of 80%, a residual activity ([19]; compound 10.0 µM) of 76% and a residual activity ([20]; compound 0.1 µM) of 50%. For the same compound, the residual activity ([20]; compound 1.0 µM) was 50%, the residual activity ([20]; compound 10.0 µM) was 17% and the residual activity ([21]; compound 0.1 µM) was 84%. For the same compound, the residual activity ([21]; compound 1.0 µM) was 77%, the residual activity ([21]; compound 10.0 µM) was 51% and the residual activity ([22]; compound 0.1 µM) was 103%. The residual activity ([22]; compound 1.0 µM) was 78%, the residual activity ([22]; compound 10.0 µM) was 99% and the residual activity ([23]; compound 0.1 µM) was 41%. For the same compound, the residual activity ([23]; compound 1.0 µM) was 45%, the residual activity ([23]; compound 10.0 µM) was 11% and the residual activity ([24]; compound 0.1 µM) was 105%. The residual activity ([24]; compound 1.0 µM) was 86%, the residual activity ([24]; compound 10.0 µM) was 53% and the residual activity ([25]; compound 0.1 µM) was 40%. For the same compound, the residual activity ([25]; compound 1.0 µM) was 37%, the residual activity ([25]; compound 10.0 µM) was 7% and the residual activity ([26]; compound 0.1 µM) was 31%. The residual activity ([26]; compound 1.0 µM) was 29%, the residual activity ([26]; compound 10.0 µM) was 6% and the residual activity ([27]; compound 0.1 µM) was 108%. It also gave a residual activity ([27]; compound 1.0 µM) of 87%, a residual activity ([27]; compound 10.0 µM) of 71% and a residual activity ([28]; compound 0.1 µM) of 69%. For the same compound, the residual activity ([28]; compound 1.0 µM) was 67%, the residual activity ([28]; compound 10.0 µM) was 20% and the residual activity ([29]; compound 0.1 µM) was 81%. The residual activity ([29]; compound 1.0 µM) was 87%, the residual activity ([29]; compound 10.0 µM) was 44% and the residual activity ([30]; compound 0.1 µM) was 20%. For the same compound, the residual activity ([30]; compound 1.0 µM) was 18%, the residual activity ([30]; compound 10.0 µM) was 4% and the residual activity ([31]; compound 0.1 µM) was 97%. It also gave a residual activity ([31]; compound 1.0 µM) of 85%, a residual activity ([31]; compound 10.0 µM) of 114% and a residual activity ([32]; compound 0.1 µM) of 94%. For the same compound, the residual activity ([32]; compound 1.0 µM) was 107%, the residual activity ([32]; compound 10.0 µM) was 54% and the residual activity ([33]; compound 0.1 µM) was 82%. The residual activity ([33]; compound 1.0 µM) was 64%, the residual activity ([33]; compound 10.0 µM) was 28% and the residual activity ([34]; compound 0.1 µM) was 63%. It also gave a residual activity ([34]; compound 1.0 µM) of 47%, a residual activity ([34]; compound 10.0 µM) of 3% and a residual activity ([35]; compound 0.1 µM) of 22%. The residual activity ([35]; compound 1.0 µM) was 20% and the residual activity ([35]; compound 10.0 µM) was 6%.
